≈ marks a conversion by molar mass, not a printed value. Calls of active or inactive are those of the source. No cut-off for these calls is given here. Peptide text beside a SMILES is read from it. * marks the point of attachment. Decanoyl = CCCCCCCCCC(=O)*
Tests used:
Pseudomonas aeruginosa [1] = assay: Antibacterial activity against Pseudomonas aeruginosa KD491 clinical isolate assessed as inhibition of biofilm formation at 4 ug/ml after 18 to 22 hrs by crystal violet staining-based polystyrene microtiter plate reader method; assay type: functional
Pseudomonas aeruginosa [2] = assay: Antibacterial activity against Pseudomonas aeruginosa LESB58 clinical isolate after 18 to 22 hrs by checkerboard method in presence of colistin; assay type: functional
Pseudomonas aeruginosa [3] = assay: Antibacterial activity against Pseudomonas aeruginosa KD491 clinical isolate assessed as growth inhibition at 4 ug/ml measured every 15 mins by microtiter plate reader method in presence of […] ug/ml colistin; assay type: functional, organism-based
Pseudomonas aeruginosa [4] = assay: Antibacterial activity against Pseudomonas aeruginosa PAO1 clinical isolate assessed as delay in growth rate in exponential phase of bacterial growth curve at 4 to 32 ug/ml measured every 15 mins by microtiter plate reader method; assay type: functional, organism-based
[5] = Hemolytic activity in erythrocytes (unknown origin) at 250 ug/ml; assay type: ADME, cell-based, Erythrocyte; conditions: read-out: Activity
Pseudomonas aeruginosa [6] = assay: Antibacterial activity against Pseudomonas aeruginosa VW178 clinical isolate after 16 to 20 hrs by microdilution assay; assay type: functional
Pseudomonas aeruginosa [7] = assay: Antibacterial activity against Pseudomonas aeruginosa PAO1 clinical isolate after 18 to 22 hrs by checkerboard method in presence of colistin; assay type: functional
Pseudomonas aeruginosa [8] = assay: Antibacterial activity against Pseudomonas aeruginosa LES431 clinical isolate after 16 to 20 hrs by microdilution assay; assay type: functional
Pseudomonas aeruginosa [9] = assay: Antibacterial activity against Pseudomonas aeruginosa MIDLANDS clinical isolate after 16 to 20 hrs by microdilution assay; assay type: functional
Pseudomonas aeruginosa [10] = assay: Antibacterial activity against Pseudomonas aeruginosa PAO1 clinical isolate assessed as delay in growth at 4 to 32 ug/ml measured every 15 mins by microtiter plate reader method; assay type: functional, organism-based
Pseudomonas aeruginosa [11] = assay: Antibacterial activity against Pseudomonas aeruginosa KD557 clinical isolate after 16 to 20 hrs by microdilution assay; assay type: functional
Pseudomonas aeruginosa [12] = assay: Antibacterial activity against Pseudomonas aeruginosa Clone C clinical isolate assessed as inhibition of biofilm formation at 32 ug/ml after 18 to 22 hrs by crystal violet staining-based polystyrene microtiter plate reader method in presence of 2 ug/ml colistin; assay type: functional
Pseudomonas aeruginosa [13] = assay: Antibacterial activity against Pseudomonas aeruginosa LES400 clinical isolate after 16 to 20 hrs by microdilution assay; assay type: functional
Pseudomonas aeruginosa [14] = assay: Antibacterial activity against Pseudomonas aeruginosa KD491 clinical isolate after 18 to 22 hrs by checkerboard method in presence of tobramycin; assay type: functional
[15] = Hemolytic activity in erythrocytes (unknown origin) at 32 ug/ml; assay type: ADME, cell-based, Erythrocyte; conditions: read-out: Activity
Pseudomonas aeruginosa [16] = assay: Antibacterial activity against Pseudomonas aeruginosa Clone C clinical isolate after 18 to 22 hrs by checkerboard method in presence of colistin; assay type: functional
Pseudomonas aeruginosa [17] = assay: Antibacterial activity against Pseudomonas aeruginosa PAO1 clinical isolate assessed as inhibition of biofilm formation at 64 ug/ml after 18 to 22 hrs by crystal violet staining-based polystyrene microtiter plate reader method; assay type: functional
Pseudomonas aeruginosa [18] = assay: Antibacterial activity against Pseudomonas aeruginosa PAO1 clinical isolate after 16 to 20 hrs by microdilution assay; assay type: functional
Pseudomonas aeruginosa [19] = assay: Antibacterial activity against Pseudomonas aeruginosa LESB58 clinical isolate assessed as delay in growth rate in exponential phase of bacterial growth curve at 4 to 32 ug/ml measured every 15 mins by microtiter plate reader method; assay type: functional, organism-based
Pseudomonas aeruginosa [20] = assay: Antibacterial activity against Pseudomonas aeruginosa Clone C clinical isolate assessed as inhibition of biofilm formation at 8 ug/ml after 24 hrs by propidium iodide staining-based confocal laser microscopy; assay type: functional, organism-based
Pseudomonas aeruginosa [21] = assay: Antibacterial activity against Pseudomonas aeruginosa PAO1 clinical isolate assessed as inhibition of biofilm formation at 4 ug/ml after 18 to 22 hrs by crystal violet staining-based polystyrene microtiter plate reader method in presence of 0.5 ug/ml colistin; assay type: functional, organism-based
Pseudomonas aeruginosa [22] = assay: Antibacterial activity against Pseudomonas aeruginosa LESB58 clinical isolate after 16 to 20 hrs by microdilution assay; assay type: functional
Pseudomonas aeruginosa [23] = assay: Antibacterial activity against Pseudomonas aeruginosa VW0247 clinical isolate after 16 to 20 hrs by microdilution assay; assay type: functional
Pseudomonas aeruginosa [24] = assay: Antibacterial activity against Pseudomonas aeruginosa PAO1 clinical isolate assessed as inhibition of biofilm formation at 4 ug/ml after 18 to 22 hrs by crystal violet staining-based polystyrene microtiter plate reader method in presence of 0.5 ug/ml tobramycin; assay type: functional, organism-based
Pseudomonas aeruginosa [25] = assay: Antibacterial activity against Pseudomonas aeruginosa KD491 clinical isolate assessed as growth inhibition at 8 ug/ml measured every 15 mins by microtiter plate reader method in presence of 1 ug/ml tobramycin; assay type: functional, organism-based
Pseudomonas aeruginosa [26] = assay: Antibacterial activity against Pseudomonas aeruginosa VW1485 clinical isolate after 16 to 20 hrs by microdilution assay; assay type: functional
Pseudomonas aeruginosa [27] = assay: Antibacterial activity against Pseudomonas aeruginosa LESB58 clinical isolate assessed as growth inhibition at 32 ug/ml measured every 15 mins by microtiter plate reader method in presence of 1 ug/ml tobramycin; assay type: functional, organism-based
Pseudomonas aeruginosa [28] = assay: Antibacterial activity against Pseudomonas aeruginosa Clone C clinical isolate assessed as growth inhibition at 16 ug/ml measured every 15 mins by microtiter plate reader method in presence of […] ug/ml tobramycin; assay type: functional, organism-based
Pseudomonas aeruginosa [29] = assay: Antibacterial activity against Pseudomonas aeruginosa KD491 clinical isolate assessed as inhibition of biofilm formation at 32 ug/ml after 18 to 22 hrs by crystal violet staining-based polystyrene microtiter plate reader method; assay type: functional
Pseudomonas aeruginosa [30] = assay: Antibacterial activity against Pseudomonas aeruginosa PAO1 clinical isolate assessed as growth inhibition at 32 ug/ml measured every 15 mins by microtiter plate reader method in presence of […] ug/ml tobramycin; assay type: functional, organism-based
Pseudomonas aeruginosa [31] = assay: Antibacterial activity against Pseudomonas aeruginosa KD491 clinical isolate assessed as delay in growth rate in exponential phase of bacterial growth curve at 4 to 8 ug/ml measured every 15 mins by microtiter plate reader method; assay type: functional, organism-based
Pseudomonas aeruginosa [32] = assay: Antibacterial activity against Pseudomonas aeruginosa PAO1 clinical isolate assessed as inhibition of biofilm formation at 32 ug/ml after 18 to 22 hrs by crystal violet staining-based polystyrene microtiter plate reader method in absence of colistin; assay type: functional, organism-based
Pseudomonas aeruginosa [33] = assay: Antibacterial activity against Pseudomonas aeruginosa kl 3.2 clinical isolate after 16 to 20 hrs by microdilution assay; assay type: functional
Pseudomonas aeruginosa [34] = assay: Antibacterial activity against Pseudomonas aeruginosa VW313 clinical isolate after 16 to 20 hrs by microdilution assay; assay type: functional
Pseudomonas aeruginosa [35] = assay: Antibacterial activity against Pseudomonas aeruginosa PAO1 clinical isolate assessed as inhibition of biofilm formation at 32 ug/ml after 18 to 22 hrs by crystal violet staining-based polystyrene microtiter plate reader method in presence of 2 ug/ml colistin; assay type: functional
Pseudomonas aeruginosa [36] = assay: Toxicity in Pseudomonas aeruginosa KD491 clinical isolate assessed as inhibition of planktonic cell growth at 2 to 4 ug/ml after 18 to 22 hrs by microtiter plate reader method; assay type: organism-based; conditions: in vivo
Pseudomonas aeruginosa [37] = assay: Antibacterial activity against Pseudomonas aeruginosa LESB58 clinical isolate after 18 to 22 hrs by checkerboard method in presence of tobramycin; assay type: functional
Pseudomonas aeruginosa [38] = assay: Antibacterial activity against Pseudomonas aeruginosa VW1501 clinical isolate after 16 to 20 hrs by microdilution assay; assay type: functional
Pseudomonas aeruginosa [39] = assay: Antibacterial activity against Pseudomonas aeruginosa Clone C clinical isolate assessed as inhibition of biofilm formation at 128 ug/ml after 18 to 22 hrs by crystal violet staining-based polystyrene microtiter plate reader method; assay type: functional
Pseudomonas aeruginosa [40] = assay: Antibacterial activity against Pseudomonas aeruginosa LESB58 clinical isolate assessed as delay in growth at 4 to 32 ug/ml measured every 15 mins by microtiter plate reader method; assay type: functional, organism-based

MIC (Pseudomonas aeruginosa [6]): 32 µg/mL (≈ 24.1 µM)
MIC (Pseudomonas aeruginosa [8]): 32 µg/mL (≈ 24.1 µM)
MIC (Pseudomonas aeruginosa [9]): 64 µg/mL (≈ 48.2 µM)
MIC (Pseudomonas aeruginosa [11]): 256 µg/mL (≈ 193 µM)
MIC (Pseudomonas aeruginosa [13]): 64 µg/mL (≈ 48.2 µM)
MIC (Pseudomonas aeruginosa [18]): 256 µg/mL (≈ 193 µM)
MIC (Pseudomonas aeruginosa [22]): 128 µg/mL (≈ 96.4 µM)
MIC (Pseudomonas aeruginosa [23]): 64 µg/mL (≈ 48.2 µM)
MIC (Pseudomonas aeruginosa [26]): 256 µg/mL (≈ 193 µM)
MIC (Pseudomonas aeruginosa [33]): 128 µg/mL (≈ 96.4 µM)
MIC (Pseudomonas aeruginosa [34]): 32 µg/mL (≈ 24.1 µM)
MIC (Pseudomonas aeruginosa [38]): 128 µg/mL (≈ 96.4 µM)
SMILES: CCCCCCCCCC(=O)NCCCC[C@H](NC(=O)[C@H](Cc1c[nH]c2ccccc12)NC(=O)[C@H](CCCNC(=N)N)NC(=O)[C@H](Cc1c[nH]c2ccccc12)NC(=O)[C@H](CCCNC(=N)N)NC(=O)[C@H](Cc1c[nH]c2ccccc12)NC(=O)[C@@H](N)CCCNC(=N)N)C(=O)O (H-RWRWRWK(Decanoyl)-OH)
inhibition at 4 µg/mL (Pseudomonas aeruginosa [1]): 52%
fractional inhibitory concentration index (FICI) (Pseudomonas aeruginosa [2]): 0.375
growth inhibition (GI) (Pseudomonas aeruginosa [3]): Active
Activity (Pseudomonas aeruginosa [4]): Active
hemolysis at 250 ug/ml [5]: 50%
fractional inhibitory concentration index (FICI) (Pseudomonas aeruginosa [7]): 0.3125
Activity (Pseudomonas aeruginosa [10]): Active
inhibition (INH) (Pseudomonas aeruginosa [12]): 70%
fractional inhibitory concentration index (FICI) (Pseudomonas aeruginosa [14]): 0.375
hemolysis at 32 ug/ml [15]: < 10%
fractional inhibitory concentration index (FICI) (Pseudomonas aeruginosa [16]): 0.5
inhibition at 64 µg/mL (Pseudomonas aeruginosa [17]): 81%
Activity (Pseudomonas aeruginosa [19]): Active
inhibition (Pseudomonas aeruginosa [20]): inactive
inhibition (Pseudomonas aeruginosa [21]): inactive
inhibition (Pseudomonas aeruginosa [24]): inactive
growth inhibition (GI) (Pseudomonas aeruginosa [25]): Active
growth inhibition (GI) (Pseudomonas aeruginosa [27]): Active
growth inhibition (GI) (Pseudomonas aeruginosa [28]): Active
inhibition at 32 µg/mL (Pseudomonas aeruginosa [29]): 80%
growth inhibition (GI) (Pseudomonas aeruginosa [30]): Active
Activity (Pseudomonas aeruginosa [31]): Active
inhibition (Pseudomonas aeruginosa [32]): inactive
inhibition (INH) (Pseudomonas aeruginosa [35]): 84%
Activity (Pseudomonas aeruginosa [36]): Non-toxic
fractional inhibitory concentration index (FICI) (Pseudomonas aeruginosa [37]): 0.5
inhibition at 128 µg/mL (Pseudomonas aeruginosa [39]): 82%
Activity (Pseudomonas aeruginosa [40]): Active
